In the supplement of paper PMC11061612:

Assays:
Assay in all cases: combination Emax (second highest fraction inhibited in the dose matrix, 72 h); higher = more inhibition; extreme values may be limits of the assay
AM-38 (Glioblastoma) = tested on: AM-38 (Glioblastoma)
Method in brief: (§1)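 Cell lines grown in DMEM/F12 or RPMI with 10% FBS were plated in 1536-well plates and held 24 hours at 37°C, 5% CO2 before 72 hours of exposure to two-drug dose matrices, with DMSO typically at 0.2%. CellTiter-Glo 2.0 luminescence gave viability, which was converted to inhibition. Vehicle wells were set to 0 and blank wells to 1. Combination Emax is the second-highest inhibition in the matrix, and Bliss excess is the observed combination effect minus the expected EA + EB − EA·EB, where EA and EB are the single-agent effects.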

[1] = tested on: HT-1080 (Other Solid Carcinomas)
Method in brief: as §1

[2] = tested on: IA-LM (Non-Small Cell Lung Carcinoma)
Method in brief: as §1

KALS-1 (Glioblastoma) = tested on: KALS-1 (Glioblastoma)
Method in brief: as §1

[3] = tested on: LCLC-103H (Non-Small Cell Lung Carcinoma)
Method in brief: as §1

[4] = tested on: MDA-MB-415 (Breast Carcinoma)
Method in brief: as §1

[5] = tested on: MOLP-8 (Plasma Cell Myeloma)
Method in brief: as §1

[6] = tested on: MONO-MAC-6 (Acute Myeloid Leukemia)
Method in brief: as §1

[7] = tested on: MS-1 (Small Cell Lung Carcinoma)
Method in brief: as §1

NB1 (Neuroblastoma) = tested on: NB1 (Neuroblastoma)
Method in brief: as §1

[8] = tested on: NCI-H3118 (Head and Neck Carcinoma)
Method in brief: as §1

[9] = tested on: P30-OHK (B-Lymphoblastic Leukemia)
Method in brief: as §1

[10] = tested on: P32-ISH (Burkitt's Lymphoma)
Method in brief: as §1

[11] = tested on: PA-TU-8988T (Pancreatic Carcinoma)
Method in brief: as §1

[12] = tested on: PL4 (Pancreatic Carcinoma)
Method in brief: as §1

[13] = tested on: RCC-JW (Kidney Carcinoma)
Method in brief: as §1

[14] = tested on: Raji (Burkitt's Lymphoma)
Method in brief: as §1

[15] = tested on: SUP-M2 (T-Cell Non-Hodgkin's Lymphoma)
Method in brief: as §1

[16] = tested on: SiHa (Cervical Carcinoma)
Method in brief: as §1

[17] = tested on: T84 (Colorectal Carcinoma)
Method in brief: as §1

SMILES	combination Emax (AM-38 (Glioblastoma))	combination Emax [1]	combination Emax [2]	combination Emax (KALS-1 (Glioblastoma))	combination Emax [3]	combination Emax [4]	combination Emax [5]	combination Emax [6]	combination Emax [7]	combination Emax (NB1 (Neuroblastoma))	combination Emax [8]	combination Emax [9]	combination Emax [10]	combination Emax [11]	combination Emax [12]	combination Emax [13]	combination Emax [14]	combination Emax [15]	combination Emax [16]	combination Emax [17]
CN(CCO)CC[C@H](CSc1ccccc1)Nc1ccc(S(=O)(=O)NC(=O)c2ccc(N3CCC([C@@H](O)c4ccccc4-c4ccc(Cl)cc4)CC3)cc2)cc1S(=O)(=O)C(F)(F)F [AZD4320] + C[C@@H]1COCCN1C2=NC(=NC(=C2)C3(CC3)[S@](=N)(=O)C)C4=C5C=CNC5=NC=C4 [AZD6738] (first compound max 1 µM, 7x7, partner max 10 µM)	0.95	0.656	0.715	0.939	0.546	0.879	0.787	0.943	0.934	0.936	0.765	1	0.896	0.319	0.878	0.79	0.768	0.998	0.246	0.719
Cc1c2c(nn1C)CSCc1cc(n(C)n1)CSc1cc(c3ccccc3c1)OCCCc1c(C(=O)O)n(C)c3c-2c(Cl)ccc13 [AZD5991] + C=CCn1c(=O)c2cnc(Nc3ccc(N4CCN(C)CC4)cc3)nc2n1-c1cccc(C(C)(C)O)n1 [AZD1775] (first compound max 1 µM, partner max 1 µM)	0.53	0.402	0.265	0.886	0.523	0.404	1	1	0.916	0.936	0.9	0.875	1	0.891	0.737	0.279	0.916	1	0.314	0.631
CC1(C)CCC(CN2CCN(c3ccc(C(=O)NS(=O)(=O)c4ccc(NCC5CCOCC5)c([N+](=O)[O-])c4)c(Oc4cnc5[nH]ccc5c4)c3)CC2)=C(c2ccc(Cl)cc2)C1 [Venetoclax] + C1CN(CCC1(C(=O)N[C@@H](CCO)C2=CC=C(C=C2)Cl)N)C3=NC=NC4=C3C=CN4 [Capivasertib] (first compound max 1 µM, 7x7, partner max 3 µM)	0.0317	0.127	0.189	0.714	0.238	0.663	0.385	0.704	0.36	0.755	0.169	0.678	0.306	0.219	0.197	0.157	0.132	0.248	0.282	0.168
C[C@@H](c1ccc2nccn2c1)n1nnc2ncc(-c3cnn(C)c3)nc21 [Savolitinib] + CC1(C)CCC(CN2CCN(c3ccc(C(=O)NS(=O)(=O)c4ccc(NCC5CCOCC5)c([N+](=O)[O-])c4)c(Oc4cnc5[nH]ccc5c4)c3)CC2)=C(c2ccc(Cl)cc2)C1 [Venetoclax] (first compound max 1 µM, 7x7, partner max 1 µM)	0.0558	0.0906	0.197	0.113	0.146	0.261	0.0876	0.213	0.155	0.0333	0.115	0.163	0.0681	0.165	0.125	0.124	0.171	0.182	0.137	0.0875
C[C@@H](c1ccc2nccn2c1)n1nnc2ncc(-c3cnn(C)c3)nc21 [Savolitinib] + Cc1c2c(nn1C)CSCc1cc(n(C)n1)CSc1cc(c3ccccc3c1)OCCCc1c(C(=O)O)n(C)c3c-2c(Cl)ccc13 [AZD5991] (first compound max 1 µM, 7x7, partner max 1 µM)	0.244	0.117	0.268	0.186	0.211	0.344	1	0.997	0.26	0.175	0.225	0.683	1	0.243	0.189	0.106	0.751	1	0.167	0.103
Cn1cnc2c(F)c(Nc3ccc(Br)cc3Cl)c(C(=O)NOCCO)cc21 [Selumetinib] + C[C@@H]1COCCN1C2=NC(=NC(=C2)C3(CC3)[S@](=N)(=O)C)C4=C5C=CNC5=NC=C4 [AZD6738] (first compound max 10 µM, 7x7, partner max 10 µM)	0.706	0.461	0.287	0.681	0.324	0.458	0.832	0.931	0.667	0.783	0.653	0.889	0.918	0.466	0.798	0.386	0.722	1	0.209	0.667
CN(C)CCCOc1ccc(-c2ccc3ncc4c(c3c2)n(C2CCOCC2)c(=O)n4C)cn1 [AZD0156] + O=C(c1cc(Cc2n[nH]c(=O)c3ccccc23)ccc1F)N1CCN(C(=O)C2CC2)CC1 [Olaparib] (first compound max 3 µM, partner max 3 µM)	0.45	0.134	0.305	0.135	0.289	0.325	0.67	0.461	0.438	0.357	0.305	0.668	0.628	0.211	0.34	0.468	0.482	0.606	0.261	0.353
COc1cccc(OCCCN)c1-c1cc(Nc2cnc(C#N)cn2)n[nH]1 [Prexasertib] + Cc1cc2ncnn2cc1Nc1ncc2c(n1)n(C1CCOCC1)c(=O)n2C [AZD7648] (first compound max 1 µM, 7x7, partner max 10 µM)	0.845	0.557	0.489	0.866	0.725	0.413	0.897	0.976	0.971	0.78	0.819	0.984	1	0.532	0.836	0.501	0.97	1	0.386	0.785
CS(=O)(=O)CCNCc1ccc(-c2ccc3ncnc(Nc4ccc(OCc5cccc(F)c5)c(Cl)c4)c3c2)o1 [Lapatinib] + C[C@@H](Oc1cc(-c2cnn(C3CCNCC3)c2)cnc1N)c1c(Cl)ccc(F)c1Cl [Crizotinib] (first compound max 10 µM, 7x7, partner max 10 µM)	0.91	0.823	0.489	0.801	0.624	0.633	0.978	0.951	0.941	0.965	0.928	0.972	1	0.64	0.884	0.976	0.76	1	0.252	0.856
CC1(C)CCC(CN2CCN(c3ccc(C(=O)NS(=O)(=O)c4ccc(NCC5CCOCC5)c([N+](=O)[O-])c4)c(Oc4cnc5[nH]ccc5c4)c3)CC2)=C(c2ccc(Cl)cc2)C1 [Venetoclax] + C[C@@H]1COCCN1C2=NC(=NC(=C2)C3(CC3)[S@](=N)(=O)C)C4=C5C=CNC5=NC=C4 [AZD6738] (first compound max 1 µM, 7x7, partner max 10 µM)	0.732	0.425	0.435	0.83	0.55	0.509	0.75	0.985	0.702	0.789	0.568	1	0.933	0.345	0.709	0.469	0.733	0.979	0.286	0.702
CC1(C)CCC(CN2CCN(c3ccc(C(=O)NS(=O)(=O)c4ccc(NCC5CCOCC5)c([N+](=O)[O-])c4)c(Oc4cnc5[nH]ccc5c4)c3)CC2)=C(c2ccc(Cl)cc2)C1 [Venetoclax] + Cc1cc2ncnn2cc1Nc1ncc2c(n1)n(C1CCOCC1)c(=O)n2C [AZD7648] (first compound max 1 µM, 7x7, partner max 10 µM)	0.318	0.109	0.261	0.693	0.282	0.342	0.273	0.436	0.445	0.561	0.137	0.569	0.0629	0.238	0.357	0.151	0.152	0.283	0.18	0.0827
Cc1cc2ncnn2cc1Nc1ncc2c(n1)n(C1CCOCC1)c(=O)n2C [AZD7648] + CN(C)CCCOc1ccc(-c2ccc3ncc4c(c3c2)n(C2CCOCC2)c(=O)n4C)cn1 [AZD0156] (first compound max 10 µM, 7x7, partner max 1 µM)	0.417	0.151	0.35	0.346	0.338	0.504	0.514	0.497	0.309	0.238	0.215	0.376	0.214	0.271	0.0509	0.339	0.227	0.183	0.305	0.214
